Here are results for one compound from US12558376B2, “Tissue repair by activated cells” (TECHNION RESEARCH & DEVELOPMENT FOUNDATION LIMITED, priority 2018, dated 2026).

Assay [1] deals with mesenchymal stem cells (MSCs). In words: Cytokine array of MSC conditioned medium (secretome). The assay is classed as cell-based, human. As to conditions: gemcitabine-activated vs untreated MSCs. The method, then: Human bone marrow MSCs (LONZA, Switzerland) were cultured in minimum essential medium-alpha (αMEM) supplemented with 10% FBS 1% L-glutamine, 1% sodium-pyruvate, and 1% streptomycin. Medium was replaced every 3 days, and cells were maintained in culture for up to 7 passages.
After 72 hours, CM was collected.
The signals corresponding to each factor in the array were quantified by densitometry analysis.

Another assay relates to PANC1 tumors. In words: Subcutaneous PANC1 tumors treated with gemcitabine: MSC homing. As to conditions: PANC1 tumors in SCID mice, gemcitabine 500 mg/kg, after 72 hours; for MSC homing to tumors and proximity to CSCs (immunostaining): vs untreated control. The assay is classed as in vivo. The method, then:
Eight-to-ten-week-old SCID mice were subcutaneously implanted with PANC1 cells (n=5 mice/group). […] Nuclei were stained with DAPI (blue). Red arrows represent CSCs whereas white arrows represent MSCs. Scale bar, 100 μm. FIG. 1B: Right Left side is a graph showing the distance between MSCs and CSCs as was measured and plotted (n>15 fields/group) and FIG. 1B left-right side is a graph showing the percentage of MSCs in tumor single cell suspensions was quantified by flow cytometry. […] After 3 days, the percentage of TICs in culture was assessed by flow cytometry. The use of animals and experimental protocols were approved by the Animal Care and Use Committee of the Technion. Human PANC1 (5×10^6 cells) were subcutaneously injected into the flank of eight-to-ten-week-old CB.17 female SCID mice (Harlan, Israel). Tumor size was assessed regularly with Vernier calipers using the formula width^2×length×0.5. […] Tumors or […] were embedded in […], Japan) and subsequently frozen at -80° C. […] Sections were fixed in cold acetone for 15 minutes. CSCs were stained with PE-conjugated antibodies against human prominin-1 (CD133, 1:250, Macs MiltenyiBiotec). […] Tumor sections were analyzed with a camera attached to an inverted microscope (Leica CTR 6000) using Leica Application suite Version 3.4.0 software or a LSM 700 Zeiss confocal microscope (Zeiss, Germany). Nuclei were stained with DAPI (Electron Microscopy Sciences, PA, USA).

On to `Nc1ccn([C@@H]2O[C@H](CO)[C@@H](O)C2(F)F)c(=O)n1` [gemcitabine], for which the “CXCL10 secretion in conditioned medium of MSCs” value in assay [1] is “highly elevated”. For the same compound, in the assay with PANC1 tumors, the “recruitment of MSCs to pancreatic tumors (percentage of MSCs, flow cytometry)” value is on record as “massive recruitment of MSCs”; the “MSC homing to tumors and proximity to CSCs (immunostaining)” value was “MSCs home to tumors and locate in close proximity to CSCs”. Further, the “MSC homing to tumors and proximity to CSCs (immunostaining)” value with PANC1 tumors (listed as Gemcitabine) is “promotes MSCs homing to tumors”.
